Laboratory results taken from PubChem BioAssay AID248 (DTP/NCI, 2004).
“And” between values parts separate entries of the source, which are not always exact repeats. Equal entries are not always repeated. Toxic doses and inconclusive results are not listed. Cut-off read from the data, not from the text of the source: active = T/C of 150% or more; inactive = T/C below 125%.

Test system: L1210 leukemia ip in BDF1 mice, survival T/C
Test: NCI In Vivo Anticancer Drug Screen. Data for tumor model L1210 Leukemia (intraperitoneal) in B6D2F1 (BDF1) mice
Conditions: endpoint: mean survival time, higher = longer survival
How it was run: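 Ratio derived from survival: compound-dosed mice over vehicle-dosed mice, all bearing a transplantable tumor.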

[1] = dose: 100.0 mg/kg/injection, schedule: Q01DX009 (ip), vehicle: saline
[2] = dose: 400.0 mg/kg/injection, schedule: Q01DX009 (ip), vehicle: saline
[3] = dose: 100.0 mg/kg/injection, schedule: Q01DX001 (ip), vehicle: saline
[4] = dose: 100.0 mg/kg/injection, schedule: Q04DX003 (ip), vehicle: saline
[5] = dose: 200.0 mg/kg/injection, schedule: Q01DX001 (ip), vehicle: saline
[6] = dose: 400.0 mg/kg/injection, schedule: Q01DX001 (ip), vehicle: saline
[7] = dose: 100.0 mg/kg/injection, schedule: Q01DX001 (ip), vehicle: saline with Tween-80
[8] = dose: 200.0 mg/kg/injection, schedule: Q01DX001 (ip), vehicle: saline with Tween-80
[9] = dose: 100.0 mg/kg/injection, schedule: Q01DX009 (ip), vehicle: saline with Tween-80
[10] = dose: 100.0 mg/kg/injection, schedule: Q04DX003 (ip), vehicle: saline with Tween-80
[11] = dose: 200.0 mg/kg/injection, schedule: Q01DX009 (ip), vehicle: saline with Tween-80
[12] = dose: 200.0 mg/kg/injection, schedule: Q04DX003 (ip), vehicle: saline with Tween-80
[13] = dose: 400.0 mg/kg/injection, schedule: Q01DX009 (ip), vehicle: saline with Tween-80
[14] = dose: 400.0 mg/kg/injection, schedule: Q04DX003 (ip), vehicle: saline with Tween-80
[15] = dose: 50.0 mg/kg/injection, schedule: Q01DX001 (ip), vehicle: saline
[16] = dose: 100.0 mg/kg/injection, schedule: Q04DX003 (ip), vehicle: Klucel (hydroxypropylcellulose) (HPC)
[17] = dose: 200.0 mg/kg/injection, schedule: Q04DX003 (ip), vehicle: Klucel (hydroxypropylcellulose) (HPC)
[18] = dose: 400.0 mg/kg/injection, schedule: Q04DX003 (ip), vehicle: Klucel (hydroxypropylcellulose) (HPC)
[19] = dose: 100.0 mg/kg/injection, schedule: Q04DX002 (ip), vehicle: saline with Tween-80
[20] = dose: 200.0 mg/kg/injection, schedule: Q04DX002 (ip), vehicle: saline with Tween-80
[21] = dose: 400.0 mg/kg/injection, schedule: Q04DX002 (ip), vehicle: saline with Tween-80

Measured: T/C

O=C1CCC(=O)N1O
inactive: dose: 50.0 mg/kg/injection, schedule: Q01DX Z (ip), vehicle: saline 94 % of control | [1] 93 % of control | dose: 100.0 mg/kg/injection, schedule: Q01DX Z (ip), vehicle: saline 93 % of control | dose: 200.0 mg/kg/injection, schedule: Q01DX009 (ip), vehicle: saline 90 % of control | dose: 200.0 mg/kg/injection, schedule: Q01DX Z (ip), vehicle: saline 96 % of control | [2] 92 % of control | dose: 400.0 mg/kg/injection, schedule: Q01DX Z (ip), vehicle: saline 93 % of control

NCC(=O)c1ccc(O)c(O)c1
inactive: [3] 101 % of control | [1] 122 % of control | [4] 97 % of control | dose: 175.0 mg/kg/injection, schedule: Q01DX Z (ip), vehicle: methylcellulose (MC) 115 % of control | [5] 93 % of control | dose: 200.0 mg/kg/injection, schedule: Q04DX003 (ip), vehicle: saline 97 % of control | dose: 260.0 mg/kg/injection, schedule: Q01DX Z (ip), vehicle: carboxymethylcellulose (CMC) 112 % of control | dose: 260.0 mg/kg/injection, schedule: Q01DX Z (ip), vehicle: methylcellulose (MC) 121 % of control | dose: 270.0 mg/kg/injection, schedule: Q01DX Z (ip), vehicle: methylcellulose (MC) 117 % of control | [6] 104 % of control | [2] 124 % of control | dose: 400.0 mg/kg/injection, schedule: Q01DX Z (ip), vehicle: methylcellulose (MC) 112 % of control | dose: 400.0 mg/kg/injection, schedule: Q04DX003 (ip), vehicle: saline 95 % of control | dose: 600.0 mg/kg/injection, schedule: Q01DX Z (ip), vehicle: carboxymethylcellulose (CMC) 116 % of control | dose: 600.0 mg/kg/injection, schedule: Q01DX Z (ip), vehicle: methylcellulose (MC) 114 % of control | dose: 1344.0 mg/kg/injection, schedule: Q01DX Z (ip), vehicle: carboxymethylcellulose (CMC) 92 % of control

C/C=C(\C)c1cc(=O)c2c(C)cc3c(c2o1)C(=O)c1c(O)c(C2CC(C)(N(C)C)C(O)C(C)O2)cc(C2CC(N(C)C)C(O)C(C)O2)c1C3=O (stereo not given)
inactive: [7] 120 % of control | [8] 114 % of control

O=C1NC(=O)c2ncccc21
inactive: [9] 90 % of control | [10] 87 % of control | [11] 95 % of control | [12] 103 % of control | [13] 97 % of control | [14] 100 % of control

O=C(/C=C/c1ccccc1)CC(=O)c1ccccc1.O=C(/C=C/c1ccccc1)CC(=O)c1ccccc1.[Cu]
inactive: [15] 94 % of control | [3] 91 % of control | [5] 91 % of control | [6] 97 % of control

OC1CC2C=C(c3ccccc3)C1C2 (stereo not given)
inactive: [10] 96 % of control | [12] 93 % of control | [14] 88 % of control

C/C(=N\O)c1ccc[n+](Cc2ccc(C)cc2)c1
inactive: dose: 9.38 mg/kg/injection, schedule: Q01DX001 (ip), vehicle: other 97 % of control | dose: 18.75 mg/kg/injection, schedule: Q01DX001 (ip), vehicle: other 97 % of control

OCCN1CCC(CCCC2CCNCC2)CC1
inactive: dose: 10.0 mg/kg/injection, schedule: Q01DX Z (ip), vehicle: saline 97 % of control | dose: 25.0 mg/kg/injection, schedule: Q01DX009 (ip), vehicle: saline 102 % of control | dose: 25.0 mg/kg/injection, schedule: Q04DX003 (ip), vehicle: saline 111 % of control | dose: 30.0 mg/kg/injection, schedule: Q01DX Z (ip), vehicle: saline 102 % of control | dose: 50.0 mg/kg/injection, schedule: Q01DX009 (ip), vehicle: saline 96 % of control | dose: 50.0 mg/kg/injection, schedule: Q04DX003 (ip), vehicle: saline 98 % of control | [1] 91 % of control | [4] 108 % of control

c1ccc([As](c2ccccc2)c2ccccc2)cc1
inactive: dose: 50.0 mg/kg/injection, schedule: Q01DX001 (ip), vehicle: other 103 % of control | dose: 100.0 mg/kg/injection, schedule: Q01DX001 (ip), vehicle: other 103 % of control | dose: 200.0 mg/kg/injection, schedule: Q01DX001 (ip), vehicle: other 97 % of control | dose: 400.0 mg/kg/injection, schedule: Q01DX001 (ip), vehicle: other 103 % of control

O=C1NC(=S)S/C1=C/c1ccc(/C=C2/SC(=S)NC2=O)cc1
inactive: dose: 50.0 mg/kg/injection, schedule: Q01DX001 (ip), vehicle: carboxymethylcellulose (CMC) 92 % of control | dose: 100.0 mg/kg/injection, schedule: Q01DX001 (ip), vehicle: carboxymethylcellulose (CMC) 94 % of control

CCCCCC1(C)OCC(C)(C)N1O (stereo not given)
inactive: [3] 104 % of control | [5] 102 % of control | [6] 111 % of control

Cc1ccc([N+](=O)[O-])cc1NC(=O)Nc1cccc(F)c1
inactive: dose: 6.25 mg/kg/injection, schedule: Q01DX009 (ip), vehicle: Klucel (hydroxypropylcellulose) (HPC) 93 % of control | dose: 12.5 mg/kg/injection, schedule: Q01DX009 (ip), vehicle: Klucel (hydroxypropylcellulose) (HPC) 87 % of control | dose: 25.0 mg/kg/injection, schedule: Q01DX009 (ip), vehicle: Klucel (hydroxypropylcellulose) (HPC) 92 % of control | dose: 400.0 mg/kg/injection, schedule: Q01DX009 (ip), vehicle: Klucel (hydroxypropylcellulose) (HPC) 86 % of control

OC(COc1ccccc1)COc1ccccc1
inactive: [16] 105 % of control | [10] 96 % of control | [17] 105 % of control | [12] 95 % of control | [18] 106 % of control | [14] 93 % of control

O=C1OC(/C=C/c2ccccc2)=NC/1=C\c1ccc(O)cc1
inactive: [19] 104 % of control | [20] 93 % of control | [21] 93 % of control

CCN(CC)CCCC(C)Nc1ccnc(/C=C/c2ccc(C(F)(F)F)cc2)c1 (stereo not given)
inactive: dose: 12.5 mg/kg/injection, schedule: Q01DX001 (ip), vehicle: saline 98 % of control | dose: 20.0 mg/kg/injection, schedule: Q04DX003 (ip), vehicle: saline 95 % of control | dose: 25.0 mg/kg/injection, schedule: Q01DX001 (ip), vehicle: saline 96 % of control | dose: 40.0 mg/kg/injection, schedule: Q04DX003 (ip), vehicle: saline 95 % of control | [15] 104 % of control | dose: 80.0 mg/kg/injection, schedule: Q04DX003 (ip), vehicle: saline 93 % of control | [3] 86 % of control

Cc1cc(C)c(CCc2cc(C)c(C)cc2C)cc1C
inactive: [9] 93 % of control | [16] 104 % of control | [11] 92 % of control | [17] 93 % of control | [13] 87 % of control | [18] 109 % of control

COc1ccc(C(O)c2ccccn2)cc1 (stereo not given)
inactive: [10] 90 % of control | [12] 98 % of control | [14] 95 % of control

COc1cccc(-n2cc(C#N)c3c(C)cc(C)nc32)c1
inactive: [3] 87 % of control | [5] 91 % of control | [6] 87 % of control

N#CC1=C(N)CCCC1
inactive: [10] 104 % of control

COc1ccc([N+](=O)[O-])cc1NS(=O)(=O)c1cccc([N+](=O)[O-])c1
inactive: [7] 95 % of control | [9] 89 % of control and 92 % of control | [19] 97 % of control and 101 % of control | [10] 97 % of control | [8] 91 % of control | [11] 92 % of control | [20] 95 % of control and 97 % of control | [12] 97 % of control | dose: 400.0 mg/kg/injection, schedule: Q01DX001 (ip), vehicle: saline with Tween-80 91 % of control | [13] 106 % of control | [21] 94 % of control and 101 % of control | [14] 90 % of control

CCCCSc1ccc2c(cc1=O)C(NC(C)=O)CCc1cc(OC)c(OC)c(OC)c1-2 (stereo not given)
inactive: dose: 25.0 mg/kg/injection, schedule: Q04DX002 (ip), vehicle: saline 98 % of control | dose: 50.0 mg/kg/injection, schedule: Q04DX002 (ip), vehicle: saline 98 % of control | dose: 100.0 mg/kg/injection, schedule: Q04DX002 (ip), vehicle: saline 120 % of control
